These results are taken from a melting point compilation (Tetko et al.; mined from patent text by program, amines drawn as free bases though some values may be those of a salt).

Some results are limits rather than exact numbers.

Turning to `CCCc1nnc2n1-c1sc(CC)cc1C(c1ccccc1Cl)=NC2NC(=O)c1ccc2ccccc2c1` (stereo not given), the melting point (usually the temperature of the solid-liquid transition) fell in the range of 226 to 227 °C.

`CCCCC[C@@H](CNC(=O)Nc1cccc2c1OC(C)(C)C2)c1cccc2c1OCO2` returned a melting point of 161 to 162 °C.

On to `Cc1cccc(COc2ccc3c(c2)[C@@H](O)[C@H](Cc2cccnc2)CO3)n1` (relative stereo), for which the melting point was in the range of 66 to 68 °C.

As to `O=C(Nc1ccc(N2CCCCC2)cc1)N(C[C@H]1CC[C@H](CN(C(=O)Nc2ccc(N3CCCCC3)cc2)C2CCCCCC2)CC1)C1CCCCCC1`, the melting point is 175 to 178 °C.

`CC(=O)Oc1ccc(C(=O)Oc2ccc(OC(=O)c3ccc(OC(C)=O)cc3)cc2)cc1` yielded a melting point of 185 to 186 °C.

`C(=Nc1c2c(nc3ccccc13)CCCC2)c1cccc2ccccc12` showed a melting point of 229 to 231 °C.

`COc1cc2ncnc(N3CCc4cc5[nH]ccc5cc43)c2cc1OC` registered a melting point of 245 to 252 °C.

`OCCCCOc1cnc(-c2ccccc2)c(-c2ccccc2)n1` registered a melting point of 93 to 95 °C.

In the case of `O=P(O)(O)C1(P(=O)(O)O)CCCCN1`, the melting point worked out at 70 °C.

In turn, `CSCCCc1cc(F)c2ncc(C(=O)NCc3ccc(Cl)cc3)c(O)c2c1` came in with a melting point of 178 to 180 °C.

In turn, `COCOc1c(Cl)ccc(-c2cc(NC(C)=O)c(Cl)c(C(=O)OC)n2)c1F` registered a melting point of 146 °C.

With `CCn1c(=O)c2[nH]c(/C=C/c3ccccc3F)nc2n(CC)c1=O`, the melting point was above 270 °C.

Turning to `CCC1CC2C3CCC4=CC(=O)CCC4=C3C=CC2(C)C1O` (stereo not given), the melting point lay within 139 to 141 °C.

With `CCCOc1ccccc1-c1nc(N)c(NC(=O)C(F)(F)F)c(=O)[nH]1`, the melting point lay within 203 to 204 °C.

`O=Cc1cccc(OCc2ccccc2)c1Br` returned a melting point of 125 to 126 °C.

`C=CCCC(F)c1cccc(C2(c3ccc(OC(F)F)cc3)N=C(N)N(C)C2=O)c1` (stereo not given) registered a melting point of 50 to 55 °C.

`COc1cc2c(c(Cl)c1Cl)SCC2O` (stereo not given) came in with a melting point of 122 to 124 °C.

`Cc1c(NC(=O)c2ccc(OC[C@@H]3CCCO3)cc2)ccc2cc(CNC3CCC3)cnc12`: the melting point was 142 to 144 °C.

For `COc1ccc(C(=Cn2cc[nH]c2=O)CC(=O)O)cc1OC1CCCC1`, the melting point stood at 194 °C.

`N#Cc1ccc(C(=O)OC2CCN(Cc3ccccc3)CC2)cc1` came in with a melting point of 110 to 111 °C.

In turn, `O=[N+]([O-])c1ccc(F)c(-c2ccc3ncccc3c2)c1F` gave a melting point of 152 to 153 °C.

Consider `O=CC(=O)c1ccc2c(c1)CCC2`, for which the melting point lay in the range of 100 to 112 °C.

In turn, `CCOC(=O)c1ccc(NC(=O)c2ccc3c(c2)OCC(C)(C)CO3)cc1` showed a melting point of 181 to 182 °C.

Turning to `COC(=O)c1c(Cc2ccc(C(=O)NCCO)cc2)c(=O)c2ccc(Cl)cc2n1-c1ccccc1`, the melting point is 162 to 164 °C.

In turn, `Cc1ccccc1NC(=O)Nc1ccc(CN)cc1` had a melting point of 142 to 143 °C.

Turning to `O=[N+]([O-])C=C(NCCSCc1nccs1)NCCSCc1nccs1`, the melting point was 50 to 51 °C.

For `CCOC(=O)c1cc2cc(NS(=O)(=O)CCCCl)ccc2[nH]1`, the melting point was in the range of 195 to 196 °C.

Take `CC1CCCCC1C(=O)Nc1ccc(-c2cnc(-c3ccc(NC(=O)C4CCCCCC4)cc3)[nH]2)cc1` (stereo not given): the melting point lay within 220 to 222 °C.

The compound `COC1(NC(=O)NS(=O)(=O)c2cccc(N=C=O)c2)C=C(C)N=CN1` (stereo not given) registered a melting point of 147 to 157 °C.

In the case of `COc1ccc(O)c(CSc2ccccc2CO)c1`, the melting point fell in the range of 80 to 82 °C.

`COC(=O)[C@H]1[C@@H]2CC[C@@](NC(=O)OC(C)(C)C)(C(=O)O)[C@@H]21` displayed a melting point of 164 to 165 °C.

As to `CC(C)(C)NS(=O)(=O)c1ccccc1-c1ccc(CBr)c(F)c1`, the melting point lay within 138 to 140 °C.

`COC(=O)C(=O)Nc1cccc(OCCCBr)c1` returned a melting point of 90 to 91 °C.

As to `COc1c(C)c(C)c(OC)c(CC=C(C)CO)c1C`, the melting point lay within 85 to 86 °C.

In turn, `CCN(CC)CCCCC1CCN(C(=O)N2c3cc(Cl)ccc3C(=O)Nc3cccnc32)CC1` showed a melting point of 126 to 127 °C.
